{"source": "patent US20090104145A1", "about": "“Mixtures of Anthranilamide Invertebrate Pest Control Agents” (priority 2004, published 2009)", "experiment_in_all_cases": "whole plant or invertebrate", "assay_type_in_all_cases": "in vivo", "key": {"[1]": {"tested_on": "diamondback moth (Plutella xylostella)", "description": "(§1) The pest control protection afforded by the mixtures or compositions is not limited, however, to these species. The analysis of synergism or antagonism between the mixtures or compositions was determined using Colby's equation. The average % mortality data for the test compounds alone were inserted into the Colby's equation. If the observed average % mortality was higher than “p”, the expected % mortality, the mixture or composition had synergistic effects. If the observed average % mortality was equal to or lower than the expected mortality, the mixture or composition either had no synergistic effect or an antagonistic effect. In these tests, Compound 1 is the compound of Formula 1.\nFor evaluating control of diamondback moth (Plutella xylostella), cabbage (var. Stonehead) plants were grown in Metromix potting soil in 10-cm pots in aluminum trays to test size (28 days, 3-4 full leaves) the plants were sprayed to the point of runoff using the turntable sprayer as described in Test I. Test compounds were formulated and sprayed on test plants as described for Test I. After drying for 2 hours, the treated leaves were excised and infested with one cabbage looper per cell and covered. The test units were placed on trays and put in a growth chamber at 25° C. and 60% relative humidity for 4 days."}, "[2]": {"tested_on": "cotton melon aphid (Aphis gossypii Glover)", "conditions": "Aphis gossypii", "description": "as §1\n(§2) Test compounds were formulated using a solution containing 10% acetone, 90% water and 300 ppm X-77® Spreader Lo-Foam Formula non-ionic surfactant containing alkylarylpolyoxyethylene, free fatty acids, glycols and isopropanol (Loveland Industries, Inc.) to provide the desired concentration in ppm. Formulated test solutions were then applied in 1 mL volumes through a SUJ2 atomizer nozzle with ⅛ JJ custom body (Spraying Systems Co.) positioned 1.27 cm (0.5 inches) above the top of each test unit.\nFor evaluating control of cotton melon aphid (Aphis gossypii Glover) through contact and/or systemic means, each test unit consisted of a small open container with a 6- to 7-day-old cotton plant inside. This was pre-infested by placing on a leaf of the test plant 30 to 40 aphids on a piece of leaf excised from a culture plant (cut-leaf method). The larvae moved onto the test plant as the leaf piece desiccated. After pre-infestation, the soil of the test unit was covered with a layer of sand.\nTest compounds were formulated and sprayed as described for Test A. The applications were replicated three times. After spraying of the formulated test compounds, each test unit was allowed to dry for 1 hour and then a black, screened cap was placed on top. The test units were held for 6 days in a growth chamber at 19-21° C. and 50-70% relative humidity."}, "[3]": {"tested_on": "silverleaf whitefly (Bemisia argentifolii Bellows and Perring)", "conditions": "Bemisia argentifolii, in Gossypium hirsutum, read-out: % Mortality (observed)", "description": "as §1\nFor evaluating control of silverleaf whitefly (Bemisia argentifolii Bellows and Perring) through contact and/or systemic means, each test unit consisted of a small open container with a 12- to 14-day-old cotton plant inside. This was pre-infested by placing test units into cages infested with adult whiteflies so that oviposition on the cotton leaves could occur. The adults were removed from the plants with an air-blast nozzle, and the test units were capped. The test units were then stored 2 to 3 days before spraying.\nas §2\nThe results for all experimental compositions in this test were replicated three times. After spraying of the formulated test composition, each test unit was allowed to dry for 1 hour and the cap removed. The test units were held for 13 days in a growth chamber at 28° C. and 50-70% relative humidity."}, "[4]": {"tested_on": "potato leafhopper (Empoasca fabae Harris)", "conditions": "Empoasca fabae, Imidacloprid 0 ppm, read-out: % Mortality (observed)", "description": "as §1, §2\nFor evaluating control of potato leafhopper (Empoasca fabae Harris) through contact and/or systemic means, each test unit consisted of a small open container with a 5- to 6-day-old Longio bean plant (primary leaves emerged) inside. White sand was added to the top of the soil, and one of the primary leaves was excised prior to application. Test compounds were formulated and sprayed with 3 replications as described for Test A. After spraying, the test units were allowed to dry for 1 hour before they were infested with 5 potato leafhoppers (18- to 21-day-old adults). A black, screened cap was placed on the top of each container. The test units were held for 6 days in a growth chamber at 19-21° C. and 50-70% relative humidity."}, "[5]": {"tested_on": "green peach aphid (Myzus persicae Sulzer)", "conditions": "Myzus persicae, in Raphanus sativus", "description": "as §1, §2\nFor evaluating control of green peach aphid (Myzus persicae Sulzer) through contact and/or systemic means, each test unit consisted of a small open container with a 12- to 15-day-old radish plant inside. This was pre-infested by placing on a leaf of the test plant 30 to 40 aphids on a piece of leaf excised from a culture plant (cut-leaf method). The larvae moved onto the test plant as the leaf piece desiccated. After pre-infestation, the soil of the test unit was covered with a layer of sand.\nTest compounds were formulated and sprayed as described in Test A, replicated three times. After spraying of the formulated test compound, each test unit was allowed to dry for 1 hour and then a black, screened cap was placed on top. The test units were held for 6 days in a growth chamber at 19-21° C. and 50-70% relative humidity."}, "[6]": {"tested_on": "western flower thrip (Frankliniella occidentalis Pergande)", "conditions": "Frankliniella occidentalis", "description": "as §1, §2\nFor evaluating control of the western flower thrip (Frankliniella occidentalis Pergande) through contact and/or systemic means, each test unit consisted of a small open container with a 5- to 7-day-old bean (var. Soleil) plant inside.\nTest solutions were formulated and sprayed with 3 replications as described for Test A. After spraying, the test units were allowed to dry for 1 hour, 22 to 27 adult thrips were added to each unit and then a black, screened cap was placed on top. The test units were held for 7 days at 25° C. and 45-55% relative humidity."}, "[7]": {"conditions": "rate 0.5 ppm, read-out: % mortality (obs)"}, "[8]": {"conditions": "rate 2 ppm, read-out: % mortality (obs)"}}, "note": "Like-named read-outs stand apart in the source and are kept apart here.", "data": [{"smiles": "CNC(=O)c1cc(C#N)cc(C)c1NC(=O)c1cc(Br)nn1-c1ncccc1Cl", "note": "[Compound 1, 3-bromo-N-[4-cyano-2-methyl-6-[(methylamino)carbonyl]phenyl]-1-(3-chloro-2-pyridinyl)-1H-pyrazole-5-carboxamide]", "values": [{"measurement": "mortality at 0.005 ppm", "setting": "[1]; Plutella xylostella, in Brassica oleracea, rate 0.005 ppm, read-out: % mortality (obs)", "result": 86, "unit": "%"}, {"measurement": "mortality at 0.02 ppm", "setting": "[1]; Plutella xylostella, in Brassica oleracea, rate 0.02 ppm, read-out: % mortality (obs)", "result": 87, "unit": "%"}, {"measurement": "mortality at 0.08 ppm", "setting": "[1]; Plutella xylostella, in Brassica oleracea, rate 0.08 ppm, read-out: % mortality (obs)", "result": 94, "unit": "%"}, {"measurement": "% mortality", "setting": "[1]; rate 0.02", "result": 83, "unit": "%"}, {"measurement": "% mortality", "setting": "[1]; rate 0.08", "result": 90, "unit": "%"}, {"measurement": "mortality at 0.08 ppm", "setting": "[2]; Compound 1 0.08 ppm, read-out: % Mortality (observed)", "result": 15, "unit": "%"}, {"measurement": "mortality at 0.4 ppm", "setting": "[2]; Compound 1 0.4 ppm, read-out: % Mortality (observed)", "result": 18, "unit": "%"}, {"measurement": "mortality at 1.8 ppm", "setting": "[2]; Compound 1 1.8 ppm, read-out: % Mortality (observed)", "result": 66, "unit": "%"}, {"measurement": "mortality at 0.1 ppm", "setting": "[2]; rate 0.1 ppm, read-out: % mortality (obs)", "result": 22, "unit": "%"}, {"measurement": "mortality at 0.5 ppm", "setting": "[2]; [7]", "result": 37, "unit": "%"}, {"measurement": "mortality at 2 ppm", "setting": "[2]; [8]", "result": 76, "unit": "%"}, {"measurement": "mortality at 7 ppm", "setting": "[3]; Compound 1 7 ppm alone", "result": 58, "unit": "%"}, {"measurement": "mortality at 9 ppm", "setting": "[3]; Compound 1 9 ppm alone", "result": 69, "unit": "%"}, {"measurement": "mortality at 12 ppm", "setting": "[3]; Compound 1 12 ppm alone", "result": 72, "unit": "%"}, {"measurement": "mortality at 0.3 ppm", "setting": "[4]; Compound 1 0.3 ppm", "result": 0, "unit": "%"}, {"measurement": "mortality at 2.3 ppm", "setting": "[4]; Compound 1 2.3 ppm", "result": 0, "unit": "%"}, {"measurement": "mortality at 18 ppm", "setting": "[4]; Compound 1 18 ppm", "result": 100, "unit": "%"}, {"measurement": "mortality at 0.5 ppm", "setting": "[5]; 0.5 ppm, read-out: % Mortality (observed)", "result": 14, "unit": "%"}, {"measurement": "mortality at 1.1 ppm", "setting": "[5]; 1.1 ppm, read-out: % Mortality (observed)", "result": 22, "unit": "%"}, {"measurement": "mortality at 2.1 ppm", "setting": "[5]; 2.1 ppm, read-out: % Mortality (observed)", "result": 49, "unit": "%"}, {"measurement": "mortality at 0.5 ppm", "setting": "[5]; [7]", "result": 21, "unit": "%"}, {"measurement": "mortality at 1 ppm", "setting": "[5]; rate 1 ppm, read-out: % mortality (obs)", "result": 35, "unit": "%"}, {"measurement": "mortality at 2 ppm", "setting": "[5]; [8]", "result": 71, "unit": "%"}, {"measurement": "mortality at 0.3 ppm", "setting": "[6]; Compound 1 0.3 ppm alone, read-out: % Mortality (observed)", "result": 25, "unit": "%"}, {"measurement": "mortality at […]", "setting": "[6]; Compound 1 1.3 ppm alone, read-out: % Mortality (observed)", "result": 55, "unit": "%"}, {"measurement": "mortality at 6 ppm", "setting": "[6]; Compound 1 6 ppm alone, read-out: % Mortality (observed)", "result": 72, "unit": "%"}, {"measurement": "mortality at 0.3 ppm", "setting": "[6]; rate 0.3 ppm, read-out: % mortality (obs)", "result": 42, "unit": "%"}, {"measurement": "mortality at […]", "setting": "[6]; rate 1.5 ppm, read-out: % mortality (obs)", "result": 50, "unit": "%"}, {"measurement": "mortality at 6 ppm", "setting": "[6]; rate 6 ppm, read-out: % mortality (obs)", "result": 61, "unit": "%"}]}]}
